System: BE(2)-C cell
Assay: Cell proliferation assay (MTS) in BE(2)-C cells
Format: cell-based
Conditions: Homo sapiens, inhibition of BE(2)-C cell proliferation, 48 h
Outline: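 Proliferation read-out was MTS absorbance at 490 nm, with 650 nm as reference, after a 2 h MTS incubation, giving IC50 values. Before reading, BE(2)-C cells plated at 3000 per well were exposed to nine compound concentrations from 10000 down to 1.5 nM for 48 h at 37 °C, 5% CO2.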

## COC[C@@H]1CCc2nc3c(F)cc(-c4nc(Nc5ccc(CN6CCNCC6)cn5)ncc4F)cc3n21 [Example 7, (S)-5-fluoro-4-(5-fluoro-1-(methoxymethyl)-2,3-dihydro-1H-benzo[d]pyrrolo[1,2-a]imidazol-7-yl)-N-(5-(piperazin-1-ylmethyl)pyridin-2-yl)pyrimidin-2-amine]
  IC50: > 100 nM

## Fc1cnc(Nc2ccc(CN3C4CCC3CNC4)cn2)nc1-c1cc(F)c2nc3n(c2c1)[C@H](C(F)F)CC3 [Example 54, N-(5-((3,8-diazabicyclo[3.2.1]octan-8-yl)methyl)pyridin-2-yl)-4-((S)-1-(difluoromethyl)-5-fluoro-2,3-dihydro-1H-benzo[d]pyrrolo[1,2-a]imidazol-7-yl)-5-fluoropyrimidin-2-amine]
  IC50: > 100 nM

## CC1(C)CCc2nc3c(F)cc(-c4cc(Nc5ccc(CN6C7CCC6CNC7)cn5)ncc4F)cc3n21 [Example 161, N-(5-((3,8-diazabicyclo[3.2.1]octan-8-yl)methyl)pyridin-2-yl)-5-fluoro-4-(5-fluoro-1,1-dimethyl-2,3-dihydro-1H-benzo[d]pyrrolo[1,2-a]imidazol-7-yl)pyridin-2-amine]
  IC50: > 100 nM

## Fc1cnc(Nc2ccc(CN3CCNCC3)cn2)nc1-c1cc(F)c2nc3n(c2c1)[C@@H](C(F)F)CC3 [Example 152, (R)-4-(1-(difluoromethyl)-5-fluoro-2,3-dihydro-1H-benzo[d]pyrrolo[1,2-a]imidazol-7-yl)-5-fluoro-N-(5-(piperazin-1-ylmethyl)pyridin-2-yl)pyrimidin-2-amine]
  IC50: > 1000 nM

## C[C@@H]1CCc2nc3c(F)cc(-c4nc(Nc5ccc(CN6CC7CCC(C6)N7)cn5)ncc4F)cc3n21 [Example 104, N-(5-((3,8-diazabicyclo[3.2.1]octan-3-yl)methyl)pyridin-2-yl)-5-fluoro-4-((R)-5-fluoro-1-methyl-2,3-dihydro-1H-benzo[d]pyrrolo[1,2-a]imidazol-7-yl)pyrimidin-2-amine]
  IC50: 10 to 100 nM

## CN1C2CC1CN(Cc1ccc(Nc3ncc(F)c(-c4cc(F)c5nc6n(c5c4)C4(CC6)CC4)n3)nc1)C2 [Example 133, 5-fluoro-4-(5-fluoro-2,3-dihydrospiro[benzo[d]pyrrolo[1,2-a]imidazole-1,1′-cyclopropan]-7-yl)-N-(5-((6-methyl-3,6-diazabicyclo[3.1.1]heptan-3-yl)methyl)pyridin-2-yl)pyrimidin-2-amine]
  IC50: 10 to 100 nM

## Fc1cnc(Nc2ccc(CN3CC4CNCC4C3)cn2)nc1-c1cc(F)c2nc3n(c2c1)[C@H](C(F)(F)F)CC3 (stereo partly drawn) [Example 73, 5-fluoro-4-((5)-5-fluoro-1-(trifluoromethyl)-2,3-dihydro-1H-benzo[d]pyrrolo[1,2-a]imidazol-7-yl)-N-(5-((hexahydropyrrolo[3,4-c]pyrrol-2(1H)-yl)methyl)pyridin-2-yl)pyrimidin-2-amine]
  IC50: > 100 nM

## CCN1C2CCC1CN(Cc1ccc(Nc3ncc(F)c(-c4cc(F)c5nc6n(c5c4)[C@H](C(F)F)CC6)n3)nc1)C2 [Example 59, 4-((S)-1-(difluoromethyl)-5-fluoro-2,3-dihydro-1H-benzo[d]pyrrolo[1,2-a]imidazol-7-yl)-N-(5-((8-ethyl-3,8-diazabicyclo[3.2.1]octan-3-yl)methyl)pyridin-2-yl)-5-fluoropyrimidin-2-amine]
  IC50: 10 to 100 nM

## FC[C@@H]1CCc2nc3c(F)cc(-c4nc(Nc5ccc(CN6CC7CNCC7C6)cn5)ncc4F)cc3n21 (stereo partly drawn) [Example 26, 5-fluoro-4-((S)-5-fluoro-1-(fluoromethyl)-2,3-dihydro-1H-benzo[d]pyrrolo[1,2-a]imidazol-7-yl)-N-(5-((hexahydropyrrolo[3,4-c]pyrrol-2(1H)-yl)methyl)pyridin-2-yl)pyrimidin-2-amine]
  IC50: > 100 nM

## C[C@@H]1CCc2nc3c(F)cc(-c4nc(Nc5ccc(CN6CC7(CCNCC7)C6)cn5)ncc4F)cc3n21 [Example 89, (R)-N-(5-((2,7-diazaspiro[3.5]nonan-2-yl)methyl)pyridin-2-yl)-5-fluoro-4-(5-fluoro-1-methyl-2,3-dihydro-1H-benzo[d]pyrrolo[1,2-a]imidazol-7-yl)pyrimidin-2-amine]
  IC50: > 100 nM

## CCN1CCN(Cc2ccc(Nc3ncc(F)c(-c4cc(F)c5nc6n(c5c4)[C@H](CO)CC6)n3)nc2)CC1 [Example 3, (S)-(7-(2-((5-((4-ethylpiperazin-1-yl)methyl)pyridin-2-yl)amino)-5-fluoropyrimidin-4-yl)-5-fluoro-2,3-dihydro-1H-benzo[d]pyrrolo[1,2-a]imidazol-1-yl) methanol]
  IC50: > 100 nM

## CN1CCC2(CC1)CN(Cc1ccc(Nc3ncc(F)c(-c4cc(F)c5nc6n(c5c4)[C@H](C(F)(F)F)CC6)n3)nc1)C2 [Example 62, (S)-5-fluoro-4-(5-fluoro-1-(trifluoromethyl)-2,3-dihydro-1H-benzo[d]pyrrolo[1,2-a]imidazol-7-yl)-N-(5-((7-methyl-2,7-diazaspiro[3.5]nonan-2-yl)methyl)pyridin-2-yl)pyrimidin-2-amine]
  IC50: 10 to 100 nM

## CCN1CC2CCC(C1)N2Cc1ccc(Nc2ncc(F)c(-c3cc(F)c4nc5n(c4c3)[C@H](C)CC5)n2)nc1 [Example 103, N-(5-((3-ethyl-3,8-diazabicyclo[3.2.1]octan-8-yl)methyl)pyridin-2-yl)-5-fluoro-4-((R)-5-fluoro-1-methyl-2,3-dihydro-1H-benzo[d]pyrrolo[1,2-a]imidazol-7-yl)pyrimidin-2-amine]
  IC50: 10 to 100 nM

## Fc1cnc(Nc2ccc(CN3CC4(CCNCC4)C3)cn2)nc1-c1cc(F)c2nc3n(c2c1)[C@H](C(F)F)CC3 [Example 42, (S)-N-(5-((2,7-diazaspiro[3.5]nonan-2-yl)methyl)pyridin-2-yl)-4-(1-(difluoromethyl)-5-fluoro-2,3-dihydro-1H-benzo[d]pyrrolo[1,2-a]imidazol-7-yl)-5-fluoropyrimidin-2-amine]
  IC50: > 100 nM

## CN1CCN(Cc2ccc(Nc3ncc(F)c(-c4cc(F)c5nc6n(c5c4)[C@H](CF)CC6)n3)nc2)CC1 [Example 5, (S)-5-fluoro-4-(5-fluoro-1-(fluoromethyl)-2,3-dihydro-1H-benzo[d]pyrrolo[1,2-a]imidazol-7-yl)-N-(5-((4-methylpiperazin-1-yl)methyl)pyridin-2-yl)pyrimidin-2-amine]
  IC50: > 100 nM

## Fc1cnc(Nc2ccc(CN3CC4(CNC4)C3)cn2)nc1-c1cc(F)c2nc3n(c2c1)[C@H](C(F)(F)F)CC3 [Example 67, (S)-N-(5-((2,6-diazaspiro[3.3]heptan-2-yl)methyl)pyridin-2-yl)-5-fluoro-4-(5-fluoro-1-(trifluoromethyl)-2,3-dihydro-1H-benzo[d]pyrrolo[1,2-a]imidazol-7-yl)pyrimidin-2-amine]
  IC50: > 100 nM

## Fc1cnc(Nc2ccc(CN3CCNCC3)cn2)nc1-c1cc(F)c2nc3n(c2c1)CCC3 [Example 149, 5-fluoro-4-(5-fluoro-2,3-dihydro-1H-benzo[d]pyrrolo[1,2-a]imidazol-7-yl)-N-(5-(piperazin-1-ylmethyl)pyridin-2-yl)pyrimidin-2-amine]
  IC50: > 100 nM

## CCN1CCN(Cc2ccc(Nc3ncc(F)c(-c4cc(F)c5nc6n(c5c4)C4(CC6)CC4)n3)nc2)CC1 [Example 15, N-(5-((4-ethylpiperazin-1-yl)methyl)pyridin-2-yl)-5-fluoro-4-(5-fluoro-2,3-dihydrospiro[benzo[d]pyrrolo[1,2-a]imidazole-1,1′-cyclopropan]-7-yl)pyrimidin-2-amine]
  IC50: > 100 nM
